In patent US9944603B2, “Compounds and methods for the treatment of cystic fibrosis” (Flatley Discovery Lab, LLC, priority 2013, dated 2018):

Target: T1, human F508del CFTR (Homo sapiens, UniProt P13569, DEL508-508)
T1 construct: expressed in transfected cells
Assay: CFTR-YFP Assay, CFTR Corrector Protocol (YFP flux assay)
Assay type: cell-based
Details: for Emax: normalized to the positive control, read-out: EMAX (% Efficacy, EMAX normalized to the positive control)

T1 sequence (P13569 with tags, fused parts or gaps DEL508-508): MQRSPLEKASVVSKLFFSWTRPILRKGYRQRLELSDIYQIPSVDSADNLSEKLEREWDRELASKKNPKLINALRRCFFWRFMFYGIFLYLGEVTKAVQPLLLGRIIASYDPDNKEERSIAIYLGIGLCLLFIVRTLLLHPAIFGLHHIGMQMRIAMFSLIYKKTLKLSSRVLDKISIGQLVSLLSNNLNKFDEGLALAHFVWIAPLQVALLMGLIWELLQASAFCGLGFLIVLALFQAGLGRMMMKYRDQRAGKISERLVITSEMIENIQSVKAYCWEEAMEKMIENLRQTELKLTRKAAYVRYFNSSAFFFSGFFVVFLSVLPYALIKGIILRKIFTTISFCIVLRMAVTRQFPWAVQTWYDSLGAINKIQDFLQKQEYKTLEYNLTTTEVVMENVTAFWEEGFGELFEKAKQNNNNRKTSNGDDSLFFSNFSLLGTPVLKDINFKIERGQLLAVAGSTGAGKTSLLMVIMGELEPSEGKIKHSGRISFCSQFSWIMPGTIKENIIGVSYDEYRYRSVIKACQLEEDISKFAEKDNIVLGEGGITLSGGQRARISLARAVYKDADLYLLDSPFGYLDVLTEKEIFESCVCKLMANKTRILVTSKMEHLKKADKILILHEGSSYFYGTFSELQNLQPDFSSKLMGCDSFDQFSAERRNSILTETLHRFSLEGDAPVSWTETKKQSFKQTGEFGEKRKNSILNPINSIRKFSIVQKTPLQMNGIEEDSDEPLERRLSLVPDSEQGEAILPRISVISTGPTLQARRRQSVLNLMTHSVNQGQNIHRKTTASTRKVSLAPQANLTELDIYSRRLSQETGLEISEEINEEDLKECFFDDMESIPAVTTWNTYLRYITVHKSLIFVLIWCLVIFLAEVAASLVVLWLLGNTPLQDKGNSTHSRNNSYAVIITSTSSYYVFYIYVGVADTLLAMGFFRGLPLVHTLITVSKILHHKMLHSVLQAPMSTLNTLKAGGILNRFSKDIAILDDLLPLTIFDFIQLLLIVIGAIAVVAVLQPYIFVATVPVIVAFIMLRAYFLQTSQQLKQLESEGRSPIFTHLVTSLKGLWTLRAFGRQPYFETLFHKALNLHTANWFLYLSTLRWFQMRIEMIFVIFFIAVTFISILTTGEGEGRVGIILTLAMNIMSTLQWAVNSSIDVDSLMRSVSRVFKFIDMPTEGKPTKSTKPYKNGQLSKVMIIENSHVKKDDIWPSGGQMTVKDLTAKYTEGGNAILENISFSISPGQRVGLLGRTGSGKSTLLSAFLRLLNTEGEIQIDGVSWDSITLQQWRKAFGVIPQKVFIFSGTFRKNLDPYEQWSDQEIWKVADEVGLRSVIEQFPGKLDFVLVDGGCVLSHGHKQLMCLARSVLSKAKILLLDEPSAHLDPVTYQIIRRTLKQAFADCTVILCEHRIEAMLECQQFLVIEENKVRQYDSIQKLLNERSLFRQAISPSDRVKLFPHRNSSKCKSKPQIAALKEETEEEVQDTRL

SMILES: O=S(=O)(c1ccc2c(c1)OC(F)(F)O2)N1CCC(n2c(-c3ccccc3OC(F)F)nc3cccnc32)CC1 [Example 126]
- EC50: < 10 µM
- Emax: 30 to 80%

SMILES: COc1ccc2nc(-c3ccncc3F)n(C3CCN(S(=O)(=O)c4ccc5c(c4)OC(F)(F)O5)CC3)c2n1 [Example 127]
- EC50: < 10 µM
- Emax: 30 to 80%

SMILES: O=S(=O)(c1ccc2c(c1)OC(F)(F)O2)N1CCC(n2c(-c3ccncn3)nc3cccnc32)CC1 [Example 128]
- EC50: < 10 µM
- Emax: 10 to 30%

SMILES: O=S(=O)(c1ccc(OC(F)F)cc1)N1CCC(n2c(-c3ccncc3F)nc3nccnc32)CC1 [Example 129]
- EC50: < 10 µM
- Emax: 10 to 30%

SMILES: O=S(=O)(c1ccc2c(c1)OC(F)(F)O2)N1CCC(n2c(-c3ccccc3F)nc3cccnc32)CC1 [Example 130]
- EC50: < 10 µM
- Emax: 30 to 80%

SMILES: CCc1ccc(S(=O)(=O)N2CCC(n3c(-c4ccncn4)nc4cccnc43)CC2)cc1 [Example 131]
- EC50: < 10 µM
- Emax: 10 to 30%

SMILES: Cc1nc2ccc(S(=O)(=O)N3CCC(n4c(-c5ccncc5F)nc5cccnc54)CC3)cc2s1 [Example 132]
- EC50: < 10 µM
- Emax: 30 to 80%

SMILES: Cc1nc2ccc(S(=O)(=O)N3CCC(n4c(-c5ccncc5F)nc5cccnc54)CC3)cc2o1 [Example 133]
- EC50: < 10 µM
- Emax: > 80%

SMILES: Cc1nc2ccc(S(=O)(=O)N3CCC(n4c(-c5ccc(F)cc5F)nc5cccnc54)CC3)cc2o1 [Example 134]
- EC50: < 10 µM
- Emax: 30 to 80%

SMILES: [2H]C1([2H])Oc2ccc(S(=O)(=O)N3CCC(n4c(-c5cccnc5Cl)nc5cccnc54)CC3)cc2O1 [Example 135]
- EC50: 10 to 20 µM
- Emax: 10 to 30%

SMILES: [2H]C1([2H])Oc2ccc(S(=O)(=O)N3CCC(n4c(-c5ccncc5F)nc5cccnc54)CC3)cc2O1 [Example 136]
- EC50: < 10 µM
- Emax: 10 to 30%

SMILES: O=S(=O)(c1ccc2c(c1)OC(F)(F)O2)N1CCC(n2c(-c3ccncc3Cl)nc3cnccc32)CC1 [Example 137]
- EC50: 10 to 20 µM
- Emax: 10 to 30%

SMILES: CCc1ccc(S(=O)(=O)N2CCC(n3c(-c4ccncc4F)nc4ccc(OC)nc43)CC2)cc1 [Example 138]
- EC50: > 20 µM
- Emax: 30 to 80%

SMILES: Cc1noc2ccc(S(=O)(=O)N3CCC(n4c(-c5ccncc5F)nc5cccnc54)CC3)cc12 [Example 139]
- EC50: > 20 µM
- Emax: 10 to 30%

SMILES: Cc1noc2ccc(S(=O)(=O)N3CCC(n4c(-c5ccc(F)cc5F)nc5cccnc54)CC3)cc12 [Example 140]
- EC50: > 20 µM
- Emax: 10 to 30%

SMILES: Cc1n[nH]c2ccc(S(=O)(=O)N3CCC(n4c(-c5ccncc5F)nc5cccnc54)CC3)cc12 [Example 141]
- EC50: < 10 µM
- Emax: 10 to 30%

SMILES: Cc1cc2cc(S(=O)(=O)N3CCC(n4c(-c5ccncc5F)nc5cccnc54)CC3)ccc2[nH]1 [Example 142]
- EC50: < 10 µM
- Emax: 10 to 30%

SMILES: Cc1cc2cc(S(=O)(=O)N3CCC(n4c(-c5ccc(F)cc5F)nc5cccnc54)CC3)ccc2[nH]1 [Example 143]
- EC50: < 10 µM
- Emax: 10 to 30%

SMILES: Cc1n[nH]c2ccc(S(=O)(=O)N3CCC(n4c(-c5ccc(F)cc5F)nc5cccnc54)CC3)cc12 [Example 144]
- EC50: < 10 µM
- Emax: 10 to 30%

SMILES: CC(=O)N1c2ccc(S(=O)(=O)N3CCC(n4c(-c5ccncc5F)nc5cccnc54)CC3)cc2CC1C (stereo not drawn) [Example 145]
- EC50: < 10 µM
- Emax: 10 to 30%

SMILES: CC(=O)N1c2ccc(S(=O)(=O)N3CCC(n4c(-c5ccc(F)cc5F)nc5cccnc54)CC3)cc2CC1C (stereo not drawn) [Example 146]
- EC50: < 10 µM
- Emax: 10 to 30%

SMILES: Cc1cc2cc(S(=O)(=O)N3CCC(n4c(-c5ccncn5)nc5cccnc54)CC3)ccc2[nH]1 [Example 147]
- EC50: < 10 µM
- Emax: 10 to 30%

SMILES: CC1Cc2cc(S(=O)(=O)N3CCC(n4c(-c5ccncc5F)nc5cccnc54)CC3)ccc2N1 (stereo not drawn) [Example 148]
- EC50: < 10 µM
- Emax: 10 to 30%

SMILES: CC1Cc2cc(S(=O)(=O)N3CCC(n4c(-c5ccc(F)cc5F)nc5cccnc54)CC3)ccc2N1 (stereo not drawn) [Example 149]
- EC50: < 10 µM
- Emax: 10 to 30%

SMILES: COc1ccc2c(c1)nc(-c1ccncc1F)n2C1CCN(S(=O)(=O)c2ccc3c(c2)OC(F)(F)O3)CC1 [Example 150]
- EC50: 10 to 20 µM
- Emax: 30 to 80%

SMILES: CCc1ccc(S(=O)(=O)N2CCC(n3c(-c4ccncc4F)nc4cc(OC)ccc43)CC2)cc1 [Example 151]
- EC50: < 10 µM
- Emax: 30 to 80%

SMILES: CC(=O)N1c2ccc(S(=O)(=O)N3CCC(n4c(-c5ccncn5)nc5cccnc54)CC3)cc2CC1C (stereo not drawn) [Example 152]
- EC50: 10 to 20 µM
- Emax: 10 to 30%

SMILES: COc1ccc2c(c1)nc(-c1ccccc1Cl)n2C1CCN(S(=O)(=O)c2ccc3c(c2)OC(F)(F)O3)CC1 [Example 153]
- EC50: < 10 µM
- Emax: 30 to 80%

SMILES: COc1ccc2c(c1)nc(-c1ccncc1Cl)n2C1CCN(S(=O)(=O)c2ccc3c(c2)OC(F)(F)O3)CC1 [Example 154]
- EC50: < 10 µM
- Emax: 30 to 80%

SMILES: CCc1ccc(S(=O)(=O)N2CCC(n3c(-c4ccccc4Cl)nc4cc(OC)ccc43)CC2)cc1 [Example 155]
- EC50: < 10 µM
- Emax: 30 to 80%

SMILES: CCc1ccc(S(=O)(=O)N2CCC(n3c(-c4ccncc4Cl)nc4cc(OC)ccc43)CC2)cc1 [Example 156]
- EC50: < 10 µM
- Emax: 30 to 80%

SMILES: O=S(=O)(c1ccc2snc(Cl)c2c1)N1CCC(n2c(-c3ccncc3Cl)nc3cccnc32)CC1 [Example 157]
- EC50: < 10 µM
- Emax: 10 to 30%

SMILES: O=S(=O)(c1ccc2snc(Cl)c2c1)N1CCC(n2c(-c3ccncc3F)nc3cccnc32)CC1 [Example 158]
- EC50: 10 to 20 µM
- Emax: 10 to 30%

SMILES: O=S(=O)(c1ccc2snc(Cl)c2c1)N1CCC(n2c(-c3ccc(F)cc3F)nc3cccnc32)CC1 [Example 159]
- EC50: < 10 µM
- Emax: 10 to 30%

SMILES: COc1ccc2c(c1)nc(-c1ccncc1Cl)n2C1CCN(S(=O)(=O)c2ccc3nc(C)oc3c2)CC1 [Example 160]
- EC50: < 10 µM
- Emax: 30 to 80%

SMILES: O=S(=O)(c1ccc2cc[nH]c2c1)N1CCC(n2c(-c3ccncc3Cl)nc3cccnc32)CC1 [Example 161]
- EC50: 10 to 20 µM
- Emax: 10 to 30%

SMILES: O=S(=O)(c1ccc2cc[nH]c2c1)N1CCC(n2c(-c3ccncc3F)nc3cccnc32)CC1 [Example 162]
- EC50: < 10 µM
- Emax: 10 to 30%

SMILES: COc1ccc2c(c1)nc(-c1ccncc1F)n2C1CCN(S(=O)(=O)c2ccc3nc(C)oc3c2)CC1 [Example 163]
- EC50: < 10 µM
- Emax: > 80%

SMILES: COc1ccc2c(c1)nc(-c1ccc(F)cc1F)n2C1CCN(S(=O)(=O)c2ccc3nc(C)oc3c2)CC1 [Example 164]
- EC50: < 10 µM
- Emax: > 80%

SMILES: Cc1ccnc2c1nc(-c1ccncc1F)n2C1CCN(S(=O)(=O)c2ccc3c(c2)OC(F)(F)O3)CC1 [Example 165]
- EC50: < 10 µM
- Emax: 30 to 80%

SMILES: Cc1ccnc2c1nc(-c1ccncc1Cl)n2C1CCN(S(=O)(=O)c2ccc3c(c2)OC(F)(F)O3)CC1 [Example 166]
- EC50: < 10 µM
- Emax: 30 to 80%

SMILES: CCc1ccc(S(=O)(=O)N2CCC(n3c(-c4ccccc4Cl)nc4cc(O)ccc43)CC2)cc1 [Example 167]
- EC50: > 20 µM
- Emax: 10 to 30%

SMILES: CCc1ccc(S(=O)(=O)N2CCC(n3c(-c4ccncc4Cl)nc4cc(O)ccc43)CC2)cc1 [Example 168]
- EC50: < 10 µM
- Emax: 30 to 80%

SMILES: CCc1ccc(S(=O)(=O)N2CCC(n3c(-c4ccncc4F)nc4c(OC)ccnc43)CC2)cc1 [Example 169]
- EC50: < 10 µM
- Emax: 30 to 80%

SMILES: CCc1ccc(S(=O)(=O)N2CCC(n3c(-c4ccncc4Cl)nc4c(OC)ccnc43)CC2)cc1 [Example 170]
- EC50: > 20 µM
- Emax: 10 to 30%

SMILES: COc1ccc(S(=O)(=O)N2CCC(N(C(=O)c3ccccc3)c3ccccn3)CC2)cc1F [Example 171]
- EC50: < 10 µM
- Emax: 10 to 30%

SMILES: COc1ccc(S(=O)(=O)N2CCC(N(C(=O)c3ccccc3)c3cccc(C)n3)CC2)cc1Cl [Example 174]
- EC50: > 20 µM
- Emax: 10 to 30%

SMILES: CCc1ccc(S(=O)(=O)N2CCC(N(C(=O)Nc3ccccc3Cl)c3cccc(C)n3)CC2)cc1 [Example 175, 3-(2-chlorophenyl)-1-(1-((4-ethylphenyl)sulfonyl)piperidin-4-yl)-1-(6-methylpyridin-2-yl)urea]
- EC50: < 10 µM
- Emax: 10 to 30%

SMILES: COc1ccc(S(=O)(=O)N2CCC(N(C(=O)Nc3ccccc3Cl)c3cccc(C)n3)CC2)cc1Cl [Example 176]
- EC50: < 10 µM
- Emax: 10 to 30%

SMILES: CCc1ccc(S(=O)(=O)N2CCC(N(C(=O)Nc3ccccc3Cl)c3ccccn3)CC2)cc1 [Example 177]
- EC50: < 10 µM
- Emax: 10 to 30%

SMILES: COc1ccc(S(=O)(=O)N2CCC(N(C(=O)Nc3ccccc3Cl)c3ccccn3)CC2)cc1Cl [Example 178]
- EC50: < 10 µM
- Emax: 10 to 30%

SMILES: CCc1ccc(S(=O)(=O)N2CCC(N(C(=O)Nc3ccccc3)c3cccc(C)n3)CC2)cc1 [Example 179]
- EC50: < 10 µM
- Emax: 10 to 30%

SMILES: CCc1ccc(S(=O)(=O)N2CCC(N(C(=O)Nc3ccccc3)c3ccccn3)CC2)cc1 [Example 180]
- EC50: 10 to 20 µM
- Emax: 10 to 30%

SMILES: CCc1ccc(S(=O)(=O)N2CCC(N(c3ccccn3)S(=O)(=O)c3ccccc3)CC2)cc1 [Example 181]
- EC50: < 10 µM
- Emax: 30 to 80%

SMILES: CCc1ccc(S(=O)(=O)N2CCC(N(c3ccccn3)S(=O)(=O)c3ccccc3Cl)CC2)cc1 [Example 182]
- EC50: < 10 µM
- Emax: 10 to 30%

SMILES: CCc1ccc(S(=O)(=O)N2CCC(N(c3ccccn3)S(=O)(=O)c3c(C)cc(C)cc3C)CC2)cc1 [Example 183]
- EC50: < 10 µM
- Emax: 30 to 80%

SMILES: COc1ccc(S(=O)(=O)N2CCC(N(c3ccccn3)S(=O)(=O)c3c(C)cc(C)cc3C)CC2)cc1Cl [Example 184]
- EC50: < 10 µM
- Emax: 10 to 30%

SMILES: Cc1cc(C)c(S(=O)(=O)N(c2ccccn2)C2CCN(S(=O)(=O)c3ccc4c(c3)OC(F)(F)O4)CC2)c(C)c1 [Example 185]
- EC50: < 10 µM
- Emax: 30 to 80%

SMILES: CCc1ccc(S(=O)(=O)N2CCC(N(c3cccc(C)n3)S(=O)(=O)c3ccccc3)CC2)cc1 [Example 186]
- EC50: < 10 µM
- Emax: 10 to 30%

SMILES: COc1ccc(S(=O)(=O)N2CCC(N(c3cccc(C)n3)S(=O)(=O)c3ccccc3)CC2)cc1Cl [Example 187]
- EC50: < 10 µM
- Emax: 10 to 30%
